Test results from US20160051493A1, “METHODS OF TREATMENT OF KERATINOCYTE-DERIVED LESIONS” (THE TRUSTEES OF COLUMBIA UNIVERSITY IN THE CITY OF NEW YORK, priority 2012, published 2016).
Like-named read-outs stand apart in the source and are kept apart here.

How the values were obtained:
[1] = system: human keratinocytes; settings: 50 μM, 7 days
Experimental: (§1) Organotypic human skin cultures and primary SCC lines were isolated from human SCCs and cultured as previously described (Bachelor et al., 2011). In brief, human fibroblasts were seeded in a collagen matrix on a 70 μm filter insert and incubated at 37° C. for 5-7 days. Human keratinocytes or SCC cells were then seeded on the apical surface of the fibroblast-collagen matrix and cultured for 2 days submerged in media to allow monolayer formation. The media was then removed from the apical surface (raising), exposing the keratinocytes or SCC cells to air. The cultures were maintained in this fashion for up to 14 days, and the media to the fibroblasts below was changed every 2-3 days. At the time of raising, 50 μM 2-APB or vehicle (1% EtOH) was added to the media.
Sections were fixed in 4% paraformaldehyde, paraffin embedded and sectioned at 8 μm. Hematoxylin and Eosin (H&E) stained sections were imaged with a bright field microscope equipped with a 10× (0.3 NA) and 20× (0.4 NA) objectives and an Axiocam color CCD camera (Zeiss AxioObserver.Z1). Epidermal thickness was assessed by measuring the nucleated layers with ImageJ software (NIH ImageJ). Number of invading cells was determined by counting the number of round nuclei below the basement membrane per 10× field (fibroblast nuclei are flatten and were excluded). […] Six random frames per section were quantified.

[2] = system: normal human epidermal keratinocytes; experiment: Ratiometric fura-2 live-cell calcium imaging of keratinocytes; type: cell-based; settings: responders F340:F380 increase ≧20%
Experimental: (§2) Normal human keratinocytes were isolated from human foreskins by undergoing two enzymatic dissociation steps, first in dispase then in trypsin. Cells were cultured in EpiLife supplemented with human keratinocyte growth supplement (HKGS; Invitrogen). For all experiments with undifferentiated cells, keratinocytes were harvested or images at ˜75% confluency. Differentiation was induced by adding CaCl2 to the EpiLife media to reach a final [Ca2+] of 1.2 mM. Cells were typically cultured for 3 days under differentiation conditions before they were assayed. Keratinocytes were cultured for <5 passages. Purified Camphor (CAS #76-22-2), 2-APB (Tocris) or vehicle (1% EtOH)-containing media were used as indicated.
Human keratinocytes and SCC cells were washed in Ringer's solution (in mM: NaCl 140, KCl 5, D-glucose 10, HEPES 10, CaCl2 2, MgCl2 2, pH 7.2) and loaded with 5 μM fura-2AM and 1 μM pluronic (Invitrogen) for 30 minutes in the dark. During live-cell imaging, saturating concentrations of TRP agonists (10 mM Camphor, 100 μM 2-APB 1 μM Capsaicin, 300 μM Mustard oil or 3 μM 4αPDD) in Ringer's were used. Cells were imaged for 20 s to establish a baseline and then acutely treated with each agonist for 60 seconds. Imaging was performed on an Olympus IX81 microscope with a 20× (NA 0.17) objective and a Hamamatsu ORCA-R2 camera. 340- and 380-nm excitation and 540-nm emission filters were used to capture fura-2 fluorescence. Data are expressed as a ratio of fluorescent signals (340/380). All data acquisition was performed in MetaFluor. Data analysis was performed with custom algorithms in IgorPro. Cells with baseline levels ±2 SD above the mean were excluded from analysis as unhealthy. Responders were designated as cells whose 340/380 ratio was ≧20% above baseline.
TRP channels are selectively activated by endogenous and exogenous ligands at micromolar to millimolar concentrations. Since TRP channel activity increases over this range to allow graded Ca^2+ influx, receptor activity levels can be monitored by live-cell Ca^2+ imaging. A ratiometric calcium indicator (Fura-2) was employed to determine whether a panel of TRP-channel agonists elicited cytoplasmic calcium increases in human epidermal keratinocytes. (FIG. 1A-1E, FIG. 2A-2B, and Table 3).
Normal human keratinocytes were cultured in low-calcium media to promote proliferation or in 1.2-mM calcium media to induce differentiation. For live-cell imaging, keratinocytes were then washed and bathed in Ringer's solution containing 2 mM calcium so that calcium signals could be directly compared between cell populations.
In keratinocytes, increased intracellular calcium stimulates the terminal differentiation process. To determine whether camphor oil and its abundant constituents are directly bioactive on epithelial keratinocytes, a ratiometric Ca2+ indictor (Fura-2) was employed to test whether a panel of terpenes elicited cytoplasmic Ca2+ increases in undifferentiated human epidermal keratinocytes (FIG. 19A-19C). Keratinocytes were cultured according to our standard methods. For live-cell imaging, keratinocytes were bathed in Ringer's solution containing 2 mM Ca2+.

[3] = system: normal human keratinocytes; experiment: Keratinocyte cell counts (DAPI), morphology and EdU proliferation assay after 24 h treatment; settings: 24 hours
Experimental: as §2
Cells were treated with 2-APB or camphor for 24 hours at 37° C., exposed to EdU for 45 min, fixed and stained with DAPI for cell counting. EdU Click-It assays (Invitrogen) were used to assess cell-cycle entry. The cells were then fixed and stained with DAPI. Three fields per well were assayed via a 20× objective and there were 4 wells per treatment in each experiment. EdU=5-ethynyl-2′-deoxyuridine.
As Ca^2+ triggers the commitment switch from proliferation to differentiation in keratinocytes, it was reasoned that increasing intracellular calcium by incubating keratinocytes in TRP agonists might be sufficient to induce this cell-fate switch in low-calcium growth media. To test this hypothesis, normal human keratinocytes were cultured for 24 hours under low-Ca^2+ conditions in the presence of low (12.5 μM), half-maximal (50 μM) and saturating (100 μM) concentrations of 2-APB (FIG. 3A) or camphor (0-8 mM) (FIG. 3E). These TRP agonists were chosen because they reliably elicited intracellular calcium signaling in normal human keratinocytes (FIG. 1A-1E).
As camphor can activate both TRPV3 and TRPV1 channels, these experiments were repeated in the presence of a specific TRPV1 antagonist, AMG-9810 (Gavva et al., 2005).

[4] = target: TRPC1 (Homo sapiens, UniProt P48995); settings: cited from earlier work
[5] = system: TRPV3; settings: Activation, cited from earlier work
[6] = system: keratinocyte differentiation genes (LOR, FLG, IVL, TGM3); settings: 50 μM, 24 hours
Description: RNA was isolated using RNeasy Kit (Qiagen) and reversed transcribed. Four technical replicates were run for each primer set and cDNA sample using SYBR Green (Applied Biosystems) for quantitative readout. Complementary DNA was synthesized with oligo-dT primers and SuperScript III (Invitrogen). Primers were generated in Primer3. Primer pairs were optimized for qPCR and validated in control specimens. […] Melting curves were generated for all products to confirm a single amplicon for each product. To determine gene expression in each sample, cycle thresholds (CT) of the gene of interest were normalized to the reference gene GAPDH (ΔCT). Fold change was determined using the ΔΔCT method where vehicle or growth conditions were used as the calibrator (ΔΔCT=[(CT(target gene)−CT(reference gene)]−[CT(calibrator)]−CT(reference gene)]. All gene amplifications were performed in quadruplicate.

[7] = system: SCC-39 cells; settings: 50 μM, 14 days
Experimental: as §1
(§3) Sections were fixed in 4% paraformaldehyde, paraffin embedded and sectioned at 8 μm. Hematoxylin and Eosin (H&E) stained sections were imaged with a bright field microscope equipped with a 10× (0.3 NA) and 20× (0.4 NA) objectives and an Axiocam color CCD camera (Zeiss AxioObserver.Z1). Epidermal thickness was assessed by measuring the nucleated layers with ImageJ software (NIH ImageJ). Number of invading cells was determined by counting the number of round nuclei below the basement membrane per 10× field (fibroblast nuclei are flatten and were excluded). Four non-serial paraffin sections per experiment were examined. Six random frames per section were quantified.
(§4) As TRP-channels are expressed in human SCC keratinocytes and TRP agonists arrest keratinocyte proliferation, it was reasoned that TRP agonists might be candidates for SCC-targeted therapy. To test this notion, organotypic human skin cultures were seeded with SCC cells.

[8] = system: SCC-73 cells; settings: 50 μM, 14 days
Experimental: as §1, §3, §4

[9] = system: SCC-13 cells; settings: 50 μM, 14 days
Experimental: as §1, §3, §4

[10] = target: ORAI1 (Homo sapiens, UniProt Q96D31); settings: Inhibition; cited from earlier work
ORAI1, sequence (Q96D31 whole entry, species assumed): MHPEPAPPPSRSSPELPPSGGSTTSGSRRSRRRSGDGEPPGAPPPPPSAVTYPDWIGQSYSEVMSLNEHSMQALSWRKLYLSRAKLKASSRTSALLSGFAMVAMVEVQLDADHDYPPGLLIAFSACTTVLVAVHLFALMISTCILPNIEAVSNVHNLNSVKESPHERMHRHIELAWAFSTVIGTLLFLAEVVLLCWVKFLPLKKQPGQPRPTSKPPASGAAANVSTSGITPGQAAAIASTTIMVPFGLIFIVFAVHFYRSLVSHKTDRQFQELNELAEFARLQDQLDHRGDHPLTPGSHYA

TRPC1, sequence (P48995 whole entry, species assumed): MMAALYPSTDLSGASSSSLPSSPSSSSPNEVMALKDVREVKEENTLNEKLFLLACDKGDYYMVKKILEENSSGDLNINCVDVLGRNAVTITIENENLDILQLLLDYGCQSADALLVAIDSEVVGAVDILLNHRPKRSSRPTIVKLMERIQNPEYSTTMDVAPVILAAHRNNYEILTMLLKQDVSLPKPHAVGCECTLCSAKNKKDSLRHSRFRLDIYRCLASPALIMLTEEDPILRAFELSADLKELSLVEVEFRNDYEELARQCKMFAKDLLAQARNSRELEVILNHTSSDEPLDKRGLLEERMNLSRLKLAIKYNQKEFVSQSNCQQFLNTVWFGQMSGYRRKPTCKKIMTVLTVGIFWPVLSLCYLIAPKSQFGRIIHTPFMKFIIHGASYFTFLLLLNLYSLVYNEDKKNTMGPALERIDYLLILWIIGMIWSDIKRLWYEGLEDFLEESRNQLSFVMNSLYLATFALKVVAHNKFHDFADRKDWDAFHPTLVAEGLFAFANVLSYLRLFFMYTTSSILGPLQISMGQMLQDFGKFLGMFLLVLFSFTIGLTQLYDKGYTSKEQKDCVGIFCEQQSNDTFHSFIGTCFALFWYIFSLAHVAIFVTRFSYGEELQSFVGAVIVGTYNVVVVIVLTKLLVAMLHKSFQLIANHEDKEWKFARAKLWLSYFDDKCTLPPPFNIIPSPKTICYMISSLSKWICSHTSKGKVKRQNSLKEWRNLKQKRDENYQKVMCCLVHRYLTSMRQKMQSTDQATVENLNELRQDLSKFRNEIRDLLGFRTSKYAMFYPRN

## NCCOB(c1ccccc1)c1ccccc1 [2-APB, 2-aminoethoxydiphenyl borate]
[1]
  nucleated epidermal layers: one-third reduction
[2]; differentiated in 1.2 mM Ca2+, 4αPDD 3 μM, camphor 10 mM, 2-APB 100 μM
  % Responders (differentiated) Mean ± SEM: 13.0 ± 7.2%
[2]; growth conditions, saturating agonist (4αPDD 3 μM, camphor 10 mM, 2-APB 100 μM, capsaicin 1 μM, mustard oil 300 μM), SD for capsaicin and mustard oil
  % Responders (undifferentiated) Mean ± SEM or SD: 2.5 ± 0.9%
[3]; 12.5 μM
  EdU incorporation: significant increased
[3]; 12.5 μM, low-Ca2+, one set of primary keratinocytes
  cell population compared with vehicle-treated controls: 325+/−5%
[3]; 50 μM
  EdU incorporation (cell-cycle arrest): completely inhibited
  cell number: slight reduction
[3]; 100 μM
  keratinocyte morphology and cell numbers (cytotoxicity): necrotic morphological changes and a loss of cell numbers
[3]; 12.5 or 50 μM
  keratinocyte morphology: indistinguishable from vehicle-treated cells
[3]
  concentration that arrests proliferation without inducing necrotic changes: 50 µM
[4]; Activation
  Effective concentration Range: Range = 5-10 μM
[4]; Inhibition
  Effective concentration Range: Range = 50-100 μM
[5]
  Effective concentration Range: Range = 3.2-320 μM
[5]; read-out: Effective concentration EC50
  EC50: 28 µM
[6]
  involucrin (IVL) expression: little change
  transglutaminase 3 (TGM3) expression: little change
[6]; low-calcium growth media
  FLG transcript level induction versus vehicle: more than 15 fold
  LOR transcript level induction versus vehicle: more than 15 fold
[7]
  inhibition of cell invasion versus vehicle-treated cultures: > 93%
  reduction of tumor formation above the dermis: > 37%
  tumor thickness: reduced tumor thickness
[8]
  invasive nature and growth of tumor cells: dramatically reduced
  tumor thickness: reduced tumor thickness
[9]
  reduction of tumor formation above the dermis: > 37%
  tumor thickness: reduced tumor thickness
[10]
  Effective concentration Range: Range = 5-50 μM
